We go through 4 molecules from patent publication US10988786B2, “Mutant 4-hydroxyphenylacetate 3-hydroxylases and uses thereof” (SYMRISE AG, priority 2015, dated 2021).

Data set [1] deals with T1, 4HPA3H double variant Y301F/S462A (Escherichia coli, UniProt Q57160, S462A/Y301F).
T1 construct: made in house; host or cells: E. coli BL21(DE3)
The data set is described as follows: In vitro hydroxylation by the 4HPA3H/PrnF/FDH system, variant Y301F/S462A. It is filed as biochemical, E. coli. The following applies: substrate 1 mM, purified Y301F/S462A. Here is the method:
(§1) Purified 4HPA3H (A) or variants (B) (Y301I depicted in white and Y301F/S462A depicted in black) were used for conversion of substrates (1 mM) under optimized conditions. The numbers correspond to substrates as explained in the legend for FIG. 1 above.
(§2) In order to develop an effective and low-cost enzyme system for in vitro hydroxylation, several parameters of the 4HPA3H reaction with respect to maximum reaction rate were optimized. By means of a spectrophotometric assay (Example 4 above), the inventors screened different buffer systems and optimized the concentration of the components p-coumaric acid (1 cf. FIG. 1), FAD, NADH and methanol, the incubation temperature and oxygen transfer (i.e. by variation of the shaking frequency) (optimum conditions are given in the Experimental Section). […] In contrast to the cofactors, the accompanying cofactor recycling redox enzymes PrnF and FDH were used in excess due to their high specific activity.
In accordance with the whole-cell transformation experiments (FIG. 3), product yields in the conversion by the wild-type 4HPA3H (FIG. 8A) ranged from high (1, 13, 15 cf. FIG. 1) or moderate (5 cf. FIG. 1) to low (9, 11 cf. FIG. 1), whereas ferulic acid 3 was not oxidized. […]

The target in another data set is T2, wild-type 4HPA3H (Escherichia coli, UniProt Q57160).
T2 construct: made in house; host or cells: E. coli BL21(DE3)
The data set is described as follows: In vitro hydroxylation by the 4HPA3H/PrnF/FDH system, wild-type 4HPA3H. The class given is biochemical, E. coli. The note with it: substrate 1 mM, purified wild-type 4HPA3H, optimized conditions. How it is done: as §1, §2
In accordance with the whole-cell transformation experiments (FIG. 3), product yields in the conversion by the wild-type 4HPA3H (FIG. 8A) ranged from high (1, 13, 15 cf. FIG. 1) or moderate (5 cf. FIG. 1) to low (9, 11 cf. FIG. 1), whereas ferulic acid 3 was not oxidized. […] However, in contrast to the experiments with life biocatalysts […] conversion of naringenin (7 cf. FIG. 1) by the wild-type 4HPA3H (25% yield) was observed (which might be explained by increased substrate availability). The hydroxycarbazole (11) was not accepted by the double variant Y301F/S462A, probably because of the high substrate concentration which seems to reflect strong […] inhibition—an effect which has previously been observed for other 4HPA3H enzymes. Noteworthy, HPLC analysis of the reaction products confirmed product specificity.

The target in the next data set is T3, 4HPA3H (Escherichia coli, UniProt Q57160).
T3 construct: expressed in transfected cells; host or cells: E. coli BL21(DE3)
The data set is described as follows: Whole-cell hydroxylation, cells expressing wild-type 4HPA3H. The class given is cell-based, E. coli. The note with it: BL21(DE3) cells expressing wild-type 4HPA3H.

The target of data set [2] is two component non-P450 hydroxylase HpaBC (Escherichia coli, UniProt Q57160). The note with it: native wild-type HpaBC; proceeds incomplete; cited from earlier work.
Data set [3] concerns the target T4, 4HPA3H-Y301F/S462A (SEQ ID NO:175) (Escherichia coli, UniProt Q57160, S462A/Y301F).
T4 construct: made in house; host or cells: E. coli BL21(DE3)
The data set is described as follows: Solid phase-based cascade (Talon column), hydroxylation of naringenin to eriodictyol. The class given is biochemical, E. coli. Here is the method:
Stock solutions of […] and eriodictyol (10 mM each) in methanol were produced (for the structure of the compounds, see FIG. 9). They were diluted using acetonitrile for obtaining the desired concentrations (70, 110, 140, 210 and 280 μM). 10 μl of each sample was injected in to a HPLC machine and calibration curves were produced for both substances (data not shown).
First the catalysis was performed using 9 mU oxidase 4HPA3H in a 10 ml reaction comprising 1 ml 1M Tris/HCl, pH 7.5; 25 μl of a 10 mM NADH solution, 20 μl of a 5 mM FAD solution and 1 ml formate solution using 9 mU 4HPA3H-Y301F/S462A (SEQ ID NO:175) and 0.57 mU PrnF-reductase (SEQ ID NO:176) and 640 mU FDH (SEQ ID NO:177). Subsequently the enzymes were mixes, 100 μl 1M Tris/HCl solution, pH 7.5, was added and ddH2O (deionized, reverse osmosis) was added ad 2 ml. The enzyme solution was at least 5 times passed through a 1 ml Talon column with a flow rate of 0.1 ml/min^−1 to let the proteins bind to the column in a homogenous way. The evaluation of the complete binding of the proteins to the column material was measured via Bradford assay. Then, the column was washed once with 50 mM Tris/HCl, pH 7.5 (=basis buffer), and connected to a peristaltic pump.
The constituents of each reaction mixture were transferred to a suitable sterile flask, which was then connected to a peristaltic pump. During reaction, the reaction mixture was slightly stirred with the help of a magnetic stirrer. Using a flow rate of 1 ml/min, the system was washed with the basis buffer for 2 min and a control sample was taken. Only then, the substrate was added, here 200 μM naringenin (from a 10 mM stock solution in methanol). The substrate was pumped over the Talon column having the enzymes bound thereto with a flow rate of 1 ml/min at maximum. During the time range from 0-1310 min, the sample extraction was performed in samples of 35 μl each. Said samples were mixed with an equal volume of acetonitrile and were immediately injected into a HPLC device (20 μl each). The evaluation was conducted with the help of a calibration curve done at the beginning of the experiment and thereby measuring and calculating the peak areas (see FIG. 10).
The same assay was performed using 35 mU hydroxylase/1 ml column volume and the concentration of the co-enzymes for regeneration of the cofactor was increased equivalently.

The test system of another data set is 4HPA3H/PrnF/FDH system. The data set is described as follows: Dependence of in vitro conversion of p-coumaric acid on FAD concentration. It is filed as biochemical. How it is done: The reactions were to performed using the 4HPA3H/PrnF/FDH system.
as §2

Data set [4] in a line: Reduction of FAD with NADH by purified PrnF. It is filed as biochemical. The following applies: purified protein. An excerpt: In order to characterize 4HPA3H and its variants with respect to specific activity, the development of a convenient in vitro assay was necessary. As the enzymes rely on a reductase component which provides the cofactor FADH2 (see FIG. 2), the inventors focused on screening of a suitable reductase enzyme in the first step. The flavin reductase HpaC from E. coli—the endogenous partner of 4HPA3H—was not accessible due to formation of mainly insoluble protein under a variety of expression conditions (data not shown).

Take `Oc1ccc2c(c1)[nH]c1ccccc12` [Compound 11, 2-hydroxycarbazole]: the “acceptance as substrate” value in data set [1] is “not accepted”. Moreover, the “product yield” value at wild-type 4HPA3H is recorded as “low”.
Consider `O=C1C[C@@H](c2ccc(O)cc2)Oc2cc(O)cc(O)c21` [Compound 7, naringenin], for which, at 4HPA3H, the “acceptance as substrate” value is listed as “not accepted”. The “conversion of naringenin to eriodictyol” value in data set [2] is below 10%. In addition, the “remaining concentration of naringenin” value came out at 29.3 µM in data set [3] (9 mU enzyme/1 ml column, 200 μM naringenin, after 1290 min) and 33.3 µM in data set [3] (35 mU hydroxylase/1 ml column volume, after 240 min).
Turning to `Cc1cc2nc3c(=O)[nH]c(=O)nc-3n(C[C@H](O)[C@H](O)[C@H](O)COP(=O)(O)OP(=O)(O)OC[C@H]3O[C@@H](n4cnc5c(N)ncnc54)[C@H](O)[C@@H]3O)c2cc1C` [FAD, flavin adenine dinucleotide], the “effect of high concentrations on the redox system” value in the data set with 4HPA3H/PrnF/FDH system is “inhibitory”.

B1: PrnF: flavin reductase from Pseudomonas protegens Pf-5, cofactor recycling enzyme, SEQ ID NO:176 (protein, listed as Pseudomonas protegens)
chain: MNAATETKVHDLLDAEGRDVRDARELRNVLGQFATGVTVITTRTADGRNVGVTANSFSSLSLSPALVLWSLARTAPSLKAFCSASHFAINVLGAHQHHLSEQFARAAADKFAGVAHSYGKAGAPVLDDVVAVLVCRNVTQYEGGDHLIFIGEIEQYRYSGAEPLVFHAGQYRGLGSNRAESVLKHE
modifications: flavin reductase PrnF
B1: the “activity in reduction of FAD with NADH” value in data set [4] is 16,660±1,600 nmol min^−1 mg^−1.
